From patent US20240391882A1 (Mirati Therapeutics, Inc., priority 2023, published 2024) come the findings set out here.

Common to all, as to type: cell-based
In assay [1] the test system is pAKT in T47D (PI3Kα H1047R mutant) cells. The experiment in a line: Inhibition of pAKT (alphaLISA Surefire Ultra AKT 1/2/3 pS473) in T47D cells. Particulars: Homo sapiens; T47D (PI3Kα H1047R mutant) cells, 24 hr compound incubation, alphaLISA pS473; read-out: T47D (H1047R) pAKT 24 hr (IC50). A digest of the protocol:
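Cells in HBSS were dosed from 10.4 μm (1:4 serial dilution, 10 concentrations) and incubated about 24 hours at 37° C, then lysed. pAKT S473 measured by alphaLISA after overnight bead incubation. Signal normalised to alpelisib (3.125 μm) and DMSO controls; IC50 from four-parameter fit.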
Background: Bead proximity is the source of the signal in Alpha formats.

The test system of assay [2] is T47D (PI3Kα H1047R mutant) cells. The experiment in a line: Cell viability (CellTiter-Glo 2.0) in T47D cells. Particulars: Homo sapiens, T47D, 72 h, approximately 72 hours. A digest of the protocol: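 SKBR3 or T47D cells, 1000 per well, were seeded overnight and then exposed ~72 h at 37° C to 10 concentrations of compound, 1:4 dilutions from 10 μm. Viability read by CellTiter-Glo luminescence as percent of vehicle; IC50 from four-parameter variable-slope fit.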
Background: In ATP-based viability assays light output follows the ATP content of the culture.

Assay [3] deals with SKBR3 (PI3Kα wild type) cells. The assay can be described thus: Cell viability (CellTiter-Glo 2.0) in SKBR3 cells. As to conditions: Homo sapiens, SK-BR-3; SKBR3 (PI3Kα wild type) cells, approximately 72 hours, CellTiter-Glo 2.0; read-out: SKBR3 (WT) Viability IC50. On the procedure:
This Example illustrates that representative compounds of the invention decrease the viability of cells.
The ability of a compound of Formula (I) to decrease the viability of cells was measured using CellTiter-Glo 2.0 (CTG) Luminescent Cell Viability Assay (#G9241) obtained from Promega (Madison, WI).
To prepare assay plates for viability assays, cells were trypsinized, resuspended in fresh media, and viable cells were counted utilizing trypan blue exclusion. T47D, SKBR3, or MKN1 cells were seeded at 1000 cells in 30 μl per well in a solid white flat bottom 384 cell culture plate (Perkin Elmer #6007680) and incubated at 37° C. overnight.
Assay day 1, cells were dosed using an Echo Liquid Handler (Beckman Coulter) with compounds at a 10 μm starting concentration and serially diluted (1:4) for a total of 10 concentrations. Cells were incubated for approximately 72 hours with the compounds (solubilized in DMSO) at 37° C. After 72 hours of treatment, cell plates were equilibrated to room temperature before adding 15 μl of CTG to each well, plates were then covered in aluminum foil to protect from light, incubated at room temperature for 30 minutes on a microtiter plate shaker, and luminescence readings were collected using a CLARIOstar microplate reader (BMG Labtech, Germany). Percent of vehicle control values were plotted as log(inhibitor) vs. response—Variable slope (four parameters) for curve fitting and IC50 values were determined using XLfit.

`Cc1cc([C@@H](C)Nc2ccc(Cl)nc2C(=O)O)c2nc(N3CCc4ccn(C)c(=O)c4C3)c(C#N)nc2c1` [Example 222, (R)-6-chloro-3-((1-(2-cyano-7-methyl-3-(7-methyl-8-oxo-3,4,7,8-tetrahydro-2,7-naphthyridin-2(1H)-yl)quinoxalin-5-yl)ethyl)amino)picolinic acid]: the values for the IC50 in assay [1], in assay [2] and in assay [3] were 0.0042 µM, 0.225 µM and above 10 µM, respectively.
On the same counts, the results for `Cc1cc([C@@H](C)Nc2ccc(Cl)nc2C(=O)O)c2nc(N3CC4C[C@@]4(C(F)(F)F)C3)c(C#N)nc2c1` (single isomer, unassigned) [Example 43A] are 0.0048 µM, 0.099 µM and above 10 µM.
On the same counts, the results for `Cc1cc([C@@H](C)Nc2ccc(Cl)nc2C(=O)O)c2nc(N3C[C@H]4C[C@@H]3CC4(F)F)c(C#N)nc2c1` (single isomer, unassigned) [Example 9] are 0.0075 µM, 0.0651 µM and 3.41 µM.
On the same counts, the results for `Cc1cc([C@@H](C)Nc2ccc(Cl)nc2C(=O)O)c2nc(N3CC4C(C3)C4(F)F)c(C#N)nc2c1` (stereo partly drawn) [Example 21, 6-chloro-3-(((1R)-1-(2-cyano-3-(6,6-difluoro-3-azabicyclo[3.1.0]hexan-3-yl)-7-methylquinoxalin-5-yl)ethyl)amino)picolinic acid] are 0.0005 µM, 0.0321 µM and above 10 µM.
For the compound `Cc1cc([C@@H](C)Nc2ccc(Cl)nc2C(=O)O)c2nc(N3C[C@@H]4COC[C@H]4C3)c(C#N)nc2c1` (single isomer, unassigned) [Example 229B], the IC50 was determined as 0.0012 µM in assay [1], 0.0186 µM in assay [2] and 4.92 µM in assay [3].
In the case of `Cc1cc([C@@H](C)Nc2ccc(Cl)nc2-c2nnn[nH]2)c2nc(N3CCOCC3)c(C#N)nc2c1` [Example 854, (R)-5-(1-((6-chloro-2-(1H-tetrazol-5-yl)pyridin-3-yl)amino)ethyl)-7-methyl-3-morpholinoquinoxaline-2-carbonitrile], the results for the IC50 in assay [2] and in assay [3] were 0.052 µM and 4.38 µM, respectively.
On the same counts, the results for `Cc1cc([C@@H](C)Nc2ccc(Cl)nc2C(=O)O)c2nc(N3CCC(F)(F)CC3)c(C3CC3)nc2c1` [Example 48, (R)-6-chloro-3-((1-(2-cyclopropyl-3-(4,4-difluoropiperidin-1-yl)-7-methylquinoxalin-5-yl)ethyl)amino)picolinic acid] are 0.0953 µM and above 10 µM.
On the same counts, the results for `Cc1cc([C@@H](C)Nc2scnc2C(=O)O)c2nc(N3CCC(F)(F)CC3)c(C#N)nc2c1` [Example 39, (R)-5-((1-(2-cyano-3-(4,4-difluoropiperidin-1-yl)-7-methylquinoxalin-5-yl)ethyl)amino)thiazole-4-carboxylic acid] are 2.68 µM and 6.23 µM.
On the same counts, the results for `Cc1cc([C@@H](C)Nc2ccccc2C(=O)O)c2nc(N3CCc4ccncc4C3)c(C#N)nc2c1` [Example 89, (R)-2-((1-(2-cyano-3-(3,4-dihydro-2,7-naphthyridin-2(1H)-yl)-7-methylquinoxalin-5-yl)ethyl)amino)benzoic acid] are 0.0632 µM and above 10 µM.
`Cc1cc([C@@H](C)Nc2ccccc2C#N)c2nc(N3CCOCC3)c(C#N)nc2c1` [Example 853, (R)-5-(1-((2-cyanophenyl)amino)ethyl)-7-methyl-3-morpholinoquinoxaline-2-carbonitrile]: the figures for the IC50 in assay [2] and in assay [3] were 4.34 µM and above 10 µM, respectively.
On the same counts, the results for `Cc1cc([C@@H](C)Nc2ccc(Cl)nc2C(=O)O)c2nc(N3CCC(F)(F)[C@@H](C)C3)c(C#N)nc2c1` [Example 78B, 6-chloro-3-(((R)-1-(2-cyano-3-((S)-4,4-difluoro-3-methylpiperidin-1-yl)-7-methylquinoxalin-5-yl)ethyl)amino)picolinic acid] are 0.0844 µM and above 10 µM.
Regarding `Cc1cc([C@@H](C)Nc2ccccc2C(=O)O)c2nc(N3CC4(COC4)C3)c(C#N)nc2c1` [Example 59, (R)-2-((1-(2-cyano-7-methyl-3-(2-oxa-6-azaspiro[3.3]heptan-6-yl)quinoxalin-5-yl)ethyl)amino)benzoic acid], the IC50 in assay [2] was 0.14 µM; in assay [3], above 10 µM.
On the same counts, the results for `Cc1cc([C@@H](C)Nc2ccccc2C(=O)O)c2nc(N3CCc4cc(F)ccc4C3)c(C#N)nc2c1` [Example 88, (R)-2-((1-(2-cyano-3-(6-fluoro-3,4-dihydroisoquinolin-2(1H)-yl)-7-methylquinoxalin-5-yl)ethyl)amino)benzoic acid] are 0.365 µM and above 10 µM.
For the compound `Cc1cc([C@@H](C)Nc2ccc(Cl)nc2C(=O)O)c2nc(NCC3(C)CC3(F)F)c(C#N)nc2c1` (stereo partly drawn) [Example 74, 6-chloro-3-(((1R)-1-(2-cyano-3-(((2,2-difluoro-1-methylcyclopropyl)methyl)amino)-7-methylquinoxalin-5-yl)ethyl)amino)picolinic acid], the IC50 in assay [2] was 0.095 µM; in assay [3], above 10 µM.
On the same counts, the results for `Cc1cc([C@@H](C)Nc2ccccc2C(=O)O)c2nc(N3CCc4cc(C#N)ccc4C3)c(C#N)nc2c1` [Example 86, (R)-2-((1-(2-cyano-3-(6-cyano-3,4-dihydroisoquinolin-2(1H)-yl)-7-methylquinoxalin-5-yl)ethyl)amino)benzoic acid] are 0.27 µM and above 10 µM.
For the compound `Cc1cc([C@@H](C)Nc2ccc(Cl)nc2C(=O)O)c2nc(N3CCC(C)(C(F)(F)F)CC3)c(C#N)nc2c1` [Example 66, (R)-6-chloro-3-((1-(2-cyano-7-methyl-3-(4-methyl-4-(trifluoromethyl)piperidin-1-yl)quinoxalin-5-yl)ethyl)amino)picolinic acid], the IC50 in assay [2] came to 0.078 µM; in assay [3] it was 7.68 µM.
On the same counts, the results for `Cc1cc([C@@H](C)Nc2ccccc2C(=O)O)c2nc(N3CCc4ccccc4C3)c(C#N)nc2c1` [Example 84, (R)-2-((1-(2-cyano-3-(3,4-dihydroisoquinolin-2(1H)-yl)-7-methylquinoxalin-5-yl)ethyl)amino)benzoic acid] are 0.343 µM and above 10 µM.
On the same counts, the results for `CO[C@@H]1CCN(c2nc3c([C@@H](C)Nc4ccccc4C(=O)O)cc(C)cc3nc2C#N)C1` (single isomer, unassigned) [Example 72B] are 0.0963 µM and above 10 µM.
`Cc1cc([C@@H](C)Nc2ccc(Cl)nc2C(=O)O)c2nc(N3CCc4ccccc4C3)c(C#N)nc2c1` [Example 83, (R)-6-chloro-3-((1-(2-cyano-3-(3,4-dihydroisoquinolin-2(1H)-yl)-7-methylquinoxalin-5-yl)ethyl)amino)picolinic acid]: the IC50 was 0.0607 µM in assay [2] and above 10 µM in assay [3].
On the same counts, the results for `Cc1cc([C@@H](C)Nc2ccccc2-c2nnn[nH]2)c2nc(N3CCOCC3)c(C#N)nc2c1` [Example 852, (R)-5-(1-((2-(1H-tetrazol-5-yl)phenyl)amino)ethyl)-7-methyl-3-morpholinoquinoxaline-2-carbonitrile] are 1.44 µM and above 10 µM.

One may read the IC50 as the point on the concentration scale where inhibition reaches its midpoint.
